Assay results as given in EP1526135A1, “Azabenzodiazepines as pde4 inhibitors” (Warner-Lambert Company LLC, priority 2003, dated 2005).

Test system: type 4 phosphodiesterases
Assay: Inhibition of type 4 phosphodiesterase enzymatic activity (cytosolic preparation from U937 cells)
Assay type: biochemical
Settings: PDE4 from cytosolic preparation of human cell line U937; inhibitor concentration range 0.1 to 100 µM
Protocol: The capacity of the compounds of formula (I) of the invention to inhibit cyclic nucleotide phosphodiesterases is evaluated by measuring their IC50 (concentration needed to inhibit 50% of the enzymatic activity). In the case of PDE4 enzymes, this value is compared to the IC50 value for rolipram, a reference inhibitor for PDE4 enzymes.
The type 4 phosphodiesterases are obtained from a cytosolic preparation extracted from a cell line of human origin, U937, according to the method adapted from T. J. Torphy et al., 1992, J. Pharm. Exp. Ther. 263: 1195-1205.
The measurement of the enzymatic activity for the various types of PDE, and in particular the PDE4 enzymes, is carried out according to a method adapted from W. J. Thomson et al. 1979, Advances in Cyclic Nucleotide Research, Vol. 10: 69-92, ed. G. Brooker et al. Raven Press, NY.
For the determination of the IC50 value, the enzymatic activity is measured in the presence of the inhibitor in a concentration range from 0.1 to 100 µM.

Structure (SMILES) | IC50 [µM]
COc1cc2c3c(n1)C(c1ccccc1)=NC(NC(=O)c1cccnc1)C(=O)N3CC2 (racemic) [racemate of compound of Example 1, N-(4-Methoxy-9-oxo-6-phenyl-1,2,8,9-tetrahydro-5,7,9a-triaza-benzo[cd]azulen-8-yl)-nicotinamide] | 6.1
COc1cc2c3c(n1)C(c1ccccc1)=NC(NC(=O)c1cccnc1)C(=O)N3CC2 (stereo not drawn) [first enantiomer (Rt=5.79 min) of compound of Example 1, N-(4-Methoxy-9-oxo-6-phenyl-1,2,8,9-tetrahydro-5,7,9a-triaza-benzo[cd]azulen-8-yl)-nicotinamide] | 4.3
COc1cc2c3c(n1)C(c1ccccc1)=NC(NC(=O)c1cccnc1)C(=O)N3CC2 (stereo not drawn) [second enantiomer (Rt = 8.15 min) of compound of Example 1, N-(4-Methoxy-9-oxo-6-phenyl-1,2,8,9-tetrahydro-5,7,9a-triaza-benzo[cd]azulen-8-yl)-nicotinamide] | 73
